Tests used:
S. thypimurium TA98 = assay: Ames test, plate incorporation method; format: cell-based, Salmonella Typhimurium; conditions: positive control, 100µg
Description: (§1) Salmonella Typhimurium TA 98 and TA 100 were obtained from the Czech Collection of Microorganisms. As a positive mutagen, 3-(5-nitro-2-furyl) acrylic acid (NFAA) was used.

S. thypimurium TA100 = assay: Ames test, plate incorporation method; format: cell-based, Salmonella Typhimurium; conditions: positive control, 100µg
Description: as §1

MDA-MB-231 = tested on: MDA-MB-231; parameters: method as in PMID 33461021; conditions: cited from earlier work
MCF-7 cells = conditions: cited from earlier work
MCF-7 = tested on: MCF-7; parameters: method as in PMID 33461021; conditions: cited from earlier work

Row | Compound | Revertants CFU No. ± SD (S. thypimurium TA98) | Revertants CFU No. ± SD (S. thypimurium TA100) | IC50 (MDA-MB-231) | cells in sub-G0 population (MCF-7 cells; MFC-7 cancer cells, Control 9.8%, ref Banti et al.) | cells in S phase (MCF-7 cells) | IC50 (MCF-7)
1 | O=C(O)C=Cc1ccc([N+](=O)[O-])o1 [NFAA, 3-(5-nitro-2-furyl) acrylic acid] | 28 ± 2 CFU | 1352± 124 CFU | – | – | – | –
2 | [Ag3(Gly)2NO3]n | – | – | 2.7 ± 0.2 µM | 42.7% | 24.1% | 2.6 ± 0.1 µM
